# In patent publication US20070004791A1, “3,6-disubstituted azabicyclo {3.1.0} hexane derivatives useful as muscarnic receptor antagonists” (priority 2002, published 2007):
# Structures can show the parent of a compound that is named as a salt.
# Assays:
# M2 muscarinic receptor = target: T1, M2 muscarinic receptor (Rattus norvegicus, UniProt P10980); assay: biochemical; format: binding; conditions: Receptor Binding Assay M2 pKi
# T1 construct: Submandibular glands and heart were isolated and placed in ice cold homogenising buffer; from tissue; host or cells: rat heart membrane homogenate
# T1 sequence (P10980 1-466): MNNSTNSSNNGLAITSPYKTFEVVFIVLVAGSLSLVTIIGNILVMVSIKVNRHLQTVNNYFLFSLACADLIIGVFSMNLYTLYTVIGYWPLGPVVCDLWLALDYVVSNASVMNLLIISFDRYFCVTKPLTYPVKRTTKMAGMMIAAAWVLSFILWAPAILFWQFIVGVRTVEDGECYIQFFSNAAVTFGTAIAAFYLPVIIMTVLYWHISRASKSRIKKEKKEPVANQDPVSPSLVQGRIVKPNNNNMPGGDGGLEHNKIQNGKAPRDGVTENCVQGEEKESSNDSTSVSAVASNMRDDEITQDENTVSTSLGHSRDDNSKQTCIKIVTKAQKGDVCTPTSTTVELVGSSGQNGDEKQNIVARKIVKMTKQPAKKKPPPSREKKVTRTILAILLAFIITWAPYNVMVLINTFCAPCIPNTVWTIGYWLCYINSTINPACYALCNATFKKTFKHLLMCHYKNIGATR
# M3 muscarinic receptor [1] = target: T2, M3 muscarinic receptor (Rattus norvegicus, UniProt P08483)
# M3 muscarinic receptor [2] = target: T2, M3 muscarinic receptor; assay: biochemical; conditions: Receptor Binding Assay M3 pKi
# bladder pressure = assay: In vivo anaesthetized rabbit, carbachol-induced bladder pressure; conditions: bladder selectivity expressed as fold of selectivity of oxybutynin in the same model
# T2 sequence (P08483 whole entry): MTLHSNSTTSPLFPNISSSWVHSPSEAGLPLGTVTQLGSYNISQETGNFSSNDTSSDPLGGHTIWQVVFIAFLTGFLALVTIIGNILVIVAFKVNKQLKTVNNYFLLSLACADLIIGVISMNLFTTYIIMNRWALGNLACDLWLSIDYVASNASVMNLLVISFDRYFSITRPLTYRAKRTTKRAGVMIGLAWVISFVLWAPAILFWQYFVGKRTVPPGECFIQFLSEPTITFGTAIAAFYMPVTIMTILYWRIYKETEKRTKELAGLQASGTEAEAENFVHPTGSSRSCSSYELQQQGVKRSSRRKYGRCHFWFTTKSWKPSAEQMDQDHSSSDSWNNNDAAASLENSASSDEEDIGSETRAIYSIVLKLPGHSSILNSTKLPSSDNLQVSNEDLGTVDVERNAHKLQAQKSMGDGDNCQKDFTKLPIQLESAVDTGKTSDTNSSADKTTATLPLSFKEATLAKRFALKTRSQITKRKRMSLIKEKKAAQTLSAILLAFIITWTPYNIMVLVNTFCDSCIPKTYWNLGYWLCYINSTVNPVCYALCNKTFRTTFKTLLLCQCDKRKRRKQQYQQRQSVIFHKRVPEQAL
SMILES,Ki (M2 muscarinic receptor) [nM],Receptor Binding Assay Selectivity M2/M3 (M3 muscarinic receptor [1]),Ki (M3 muscarinic receptor [2]) [nM],Fold of Oxybutynin (bladder pressure),melting point [°C]
"CC(NC(=O)C(O)(c1ccccc1)C1CCCC1)[C@H]1[C@@H]2CN(Cc3ccccc3)C[C@@H]21 (stereo partly drawn) [Compound No. 25, (1α,5α,6α)-N-[3-benzyl-3-azabicyclo[3.1.0]hexyl-6-(1-aminoethyl)-yl]-2-hydroxy-2-cyclopentyl-2-phenyl acetamide]",427,17,25.1,–,–
"O=C(NC[C@@H]1[C@H]2CN(Cc3ccccc3)C[C@@H]12)C(O)(c1ccccc1)C1CCC1 (stereo partly drawn) [Compound No. 37, (1α,5α,6α)-N-[3-benzyl-3-azabicyclo[3.1.0]hexyl-6-(aminomethyl)-yl]-2hydroxy-2-cyclobutyl-2-phenylacetamide]",57.5,8,5.89,–,–
"O=C(NCC1C2CN(Cc3ccccc3)CC12)C(O)(c1ccccc1)C1CCCC1 [Compound No. 34, (1α,5α,6α)-N-[3-benzyl-3-azabicyclo[3.1.0]hexyl-6-(aminomethyl)-yl]-2-hydroxy-2-cyclopentyl-2-phenyl acetamide L-(+)-tartrate salt]",60.3,8,5.89,–,–
"O=C(NCC1C2CN(Cc3ccccc3)CC12)[C@@](O)(c1ccccc1)C1CCCC1.O=C(O)C(O)C(O)C(=O)O (stereo partly drawn) [Compound No. 36, (2S)-(−)-(1α,5α,6α)-N-[3-benzyl-3-azabicyclo[3.1.0]hexyl-6(aminomethyl)-yl]-2-hydroxy-2-cyclopentyl-2-phenylacetamide. L(+)-tartrate salt]",–,–,–,2.17,–
"O=C(NCC1C2CN(Cc3ccccc3)CC12)C(O)(c1ccccc1)C1CCCCC1 (stereo not drawn) [Compound No. 2, (1α,5α,6α)-N-[3-benzyl-3-azabicyclo[3.1.0]hexyl-6-(aminomethyl)-yl]-2-hydroxy-2-cyclohexyl-2-phenyl acetamide]",141,25,5.62,–,–
"CC(c1ccccc1)N1CC2C(CNC(=O)C(O)(c3ccccc3)C3CCCC3)C2C1 (stereo not drawn) [Compound No. 22, (1α,5α,6α)-N-[3-(1-phenylethyl)-3-azabicyclo[3.1.0]hexyl-6-(aminomethyl)-yl]-2-hydroxy-2-cyclopentyl-2-phenyl acetamide]",87.1,14.8,5.89,–,–
"O=C(NC[C@@H]1[C@H]2CN(Cc3ccccc3)C[C@@H]12)C(O)(c1ccccc1)C1CCCC1 (stereo partly drawn) [Compound No. 3, (1α,5α,6α)-N-[3-benzyl-3-azabicyclo[3.1.0]hexyl-6(aminomethyl)-yl]-2-hydroxy-2-cyclopentyl-2-phenyl acetamide]",95.5,16,5.89,–,131 to 134
"O=C(NC[C@@H]1[C@H]2CN(Cc3ccccc3)C[C@@H]12)C(O)(c1ccccc1)C1CC1 (stereo partly drawn) [Compound No. 38, (1α,5α,6α)-N-[3-benzyl-3-azabicyclo[3.1.0]hexyl-6-(aminomethyl)-yl]-2-hydroxy-2-cyclopropyl-2-phenylacetamide]",427,6.6,64.6,–,–
"O=C(NC[C@@H]1[C@H]2CN(Cc3ccccc3)C[C@@H]12)C(O)(c1ccccc1)c1ccccc1 [Compound No. 1, (1α,5α,6α)-N-[3-benzyl-3-azabicyclo[3.1.0]hexyl-6-(aminomethyl)-yl]-2-hydroxy-2,2-diphenyl acetamide]",257,10,25.1,–,–
"CC(C)=CCCN1CC2C(CNC(=O)C(O)(c3ccccc3)C3CCCC3)C2C1 (stereo not drawn) [Compound No. 16, (1α,5α,6α)-N-[3-(4-methyl-3-pentenyl)-3-azabicyclo[3.1.0]hexyl-6-(aminomethyl)-yl]-2-hydroxy-2-cyclopentyl-2-phenyl acetamide]",178,7.6,23.4,–,–
"O=C(NC[C@@H]1[C@H]2CN(Cc3ccccc3)C[C@@H]12)[C@](O)(c1ccccc1)C1CCCC1 [Compound No. 29, (2R)-(+)-(1α,5α,6α)-N-[3-benzyl-3-azabicyclo[3.1.0]hexyl-6-(aminomethyl)-yl]-2-hydroxy-2-cyclopentyl-2-phenyl acetamide]",12.3,11.2,1.1,–,–
"CC(C)=CCN1C[C@@H]2[C@@H](CNC(=O)C(O)(c3ccccc3)C3CCCCC3)[C@@H]2C1 (stereo partly drawn) [Compound No. 39, (1α,5α,6α)-N-[3-(3-methyl-2-butenyl)-3-azabicyclo[3.1.0]hexyl-6-(aminomethyl)yl]-2-hydroxy-2-cyclohexyl-2-phenylacetamide]",16.2,3.7,4.37,–,–
"O=C(NCC1C2CN(Cc3ccccc3)CC12)[C@](O)(c1ccccc1)C1CCCC1.O=C(O)C(O)C(O)C(=O)O (stereo partly drawn) [Compound No. 35, (2R)-(+)-(1α,5α,6α)-N-[3-benzyl-3-azabicyclo[3.1.0]hexyl-6-(aminomethyl)-yl]-2-hydroxy-2-cyclopentyl-2-phenylacetamide. L(+)-tartrate salt]",–,–,–,3.45,–
"CC(C)=CCCN1C[C@@H]2[C@@H](CNC(=O)C(O)(c3ccccc3)C3CCCCC3)[C@@H]2C1 (stereo partly drawn) [Compound No. 15, (1α,5α,6α)-N-[3-(4-methyl-3-pentenyl)-3-azabicyclo[3.1.0]hexyl-6-(aminomethyl)-yl]-2-hydroxy-2-cyclohexyl-2-phenyl acetamide]",257,19,13.5,–,–
"CC(NC(=O)C(O)(c1ccccc1)C1CCCCC1)[C@H]1[C@@H]2CN(Cc3ccccc3)C[C@@H]21 (stereo partly drawn) [Compound No. 24, (1α,5α,6α)-N-[3-benzyl-3-azabicyclo[3.1.0]hexyl-6-(1-aminoethyl)-yl]-2-hydroxy-2-cyclohexyl-2-phenyl acetamide]",275,8.9,30.9,–,–
"O=C(NCC1C2CN(Cc3ccccc3)CC12)C(O)(c1ccccc1)C1CCCCC1 (single isomer, unassigned) [Compound No. 28]",14.1,3.5,3.98,–,–
"CC(c1ccccc1)N1CC2C(CNC(=O)C(O)(c3ccccc3)C3CCCCC3)C2C1 (stereo not drawn) [Compound No. 21, (1α,5α,6α)-N-[3-(1-phenylethyl)-3-azabicyclo[3.1.0]hexyl-6-(aminomethyl)-yl]-2-hydroxy-2-cyclohexyl-2-phenyl acetamide]",257,17,15.1,–,–
"O=C(NCC1C2CN(CCc3ccc4c(c3)CCO4)CC12)C(O)(c1ccccc1)C1CCCC1 (stereo not drawn) [Compound No. 10, (1α,5α,6α)-N-[3-(2-(2,3-dihydrobenzofuran-5-yl)ethyl)-3-azabicyclo[3.1.0]hexyl-6-(aminomethyl)-yl]-2-hydroxy-2-cyclopentyl-2-phenyl acetamide]",339,10.47,32.4,–,–
"CC(NC(=O)C(O)(c1ccccc1)c1ccccc1)[C@H]1[C@@H]2CN(Cc3ccccc3)C[C@@H]21 (stereo partly drawn) [Compound No. 23, (1α,5α,6α)-N-[3-benzyl-3-azabicyclo[3.1.0]hexyl-6-(1-aminoethyl)-yl]-2-hydroxy-2,2-diphenyl acetamide]",589,3.7,158,–,–
"O=C(NC[C@@H]1[C@H]2CN(Cc3ccccc3)C[C@@H]12)[C@@](O)(c1ccccc1)C1CCCC1 [Compound No. 32, (2S)-(−)(1α,5α,6α)-N-[3-benzyl-3-azabicyclo[3.1.0]hexyl-6-(aminomethyl)-yl]-2-hydroxy-2-cyclopentyl-2-phenyl acetamide]",631,28,22.4,–,–
"O=C(NC[C@@H]1[C@H]2CN(CCc3ccc4c(c3)CCO4)C[C@@H]12)C(O)(c1ccccc1)C1CCCCC1 (stereo partly drawn) [Compound No. 9, (1α,5α,6α)-N-[3-(2-(2,3-dihydrobenzofuran-5-yl)ethyl)-3-azabicyclo[3.1.0]hexyl-6-(aminomethyl)-yl]-2-hydroxy-2-cyclohexyl-2-phenyl acetamide]",257,6.6,38.9,–,–
